Measurements taken from ChEMBL document CHEMBL4610097, “Daphnane Diterpenoids from Daphne genkwa Inhibit PI3K/Akt/mTOR Signaling and Induce Cell Cycle Arrest and Apoptosis in Human Colon Cancer Cells” (J Nat Prod, 2020).
Active and inactive are the calls of the source. No cut-off for these calls is given here.

Columns and labels:
SW-620 [1] = experiment: Induction of cell cycle arrest in human SW620 cells assessed as accumulation at G0/G1 phase at 5.92 uM after 24 hrs by propidium iodide staining-based flow cytometric analysis (reference value: 56.11%); assay type: functional
SW-620 [2] = experiment: Induction of apoptosis in human SW620 cells assessed as viable cells at 1.48 uM after 24 hrs by annexin V/propidium iodide staining-based flow cytometric analysis (reference value: 96.9%); assay type: functional; details: SW-620, 24 h, read-out: Activity
SW-620 [3] = experiment: Induction of apoptosis in human SW620 cells assessed as increase in cleaved caspase-3 at 0.74 to 11.84 uM after 24 hrs by Western blot analysis; assay type: functional, cell-based
SW-620 [4] = experiment: Induction of cell cycle arrest in human SW620 cells assessed as accumulation at G2/M phase at 2.96 uM after 24 hrs by propidium iodide staining-based flow cytometric analysis (reference value: 20.06%); assay type: functional
[5] = Inhibition of PI3K/Akt/mTOR signalling pathway in human SW620 cells assessed as reduction in mTOR phosphorylation at 0.74 to 11.84 uM after 24 hrs by Western blot analysis; assay type: cell-based; details: SW-620
SW-620 [6] = experiment: Induction of apoptosis in human SW620 cells assessed as viable cells at 5.92 uM after 24 hrs by annexin V/propidium iodide staining-based flow cytometric analysis (reference value: 96.9%); assay type: functional; details: SW-620, 24 h, read-out: Activity
SW-620 [7] = experiment: Induction of cell cycle arrest in human SW620 cells assessed as accumulation at G0/G1 phase at 0.74 uM after 24 hrs by propidium iodide staining-based flow cytometric analysis (reference value: 56.11%); assay type: functional
SW-620 [8] = experiment: Induction of cell cycle arrest in human SW620 cells assessed as accumulation at G0/G1 phase at 1.48 uM after 24 hrs by propidium iodide staining-based flow cytometric analysis (reference value: 56.11%); assay type: functional
SW-620 [9] = experiment: Induction of apoptosis in human SW620 cells assessed as necrotic cells at 1.48 uM after 24 hrs by annexin V/propidium iodide staining-based flow cytometric analysis (reference value: 0.30%); assay type: functional
SW-620 [10] = experiment: Induction of apoptosis in human SW620 cells assessed as necrotic cells at 11.84 uM after 24 hrs by annexin V/propidium iodide staining-based flow cytometric analysis (reference value: 0.30%); assay type: functional
SW-620 [11] = experiment: Induction of cell cycle arrest in human SW620 cells assessed as accumulation at G2/M phase at 0.74 uM after 24 hrs by propidium iodide staining-based flow cytometric analysis (reference value: 20.06%); assay type: functional
SW-620 [12] = experiment: Induction of morphological changes in human SW620 cells assessed as appearance of apoptotic bodies at 2.96 to 5.92 uM after 24 hrs by acridine orange/propidium iodide staining based microscopic analysis; assay type: functional, cell-based
SW-620 [13] = experiment: Induction of apoptosis in human SW620 cells assessed as early apoptotic cells at 11.84 uM after 24 hrs by annexin V/propidium iodide staining-based flow cytometric analysis (reference value: 0.36%); assay type: functional
SW-620 [14] = experiment: Induction of cell cycle arrest in human SW620 cells assessed as accumulation at S phase at 1.48 uM after 24 hrs by propidium iodide staining-based flow cytometric analysis (reference value: 23.83%); assay type: functional
SW-620 [15] = experiment: Cytotoxicity against human SW620 cells after 24 hrs by MTT assay; assay type: functional, cell-based; details: SW-620, 24 h

With C=C(C)[C@@]12O[C@@]3(/C=C/C=C/CCCCC)O[C@@H]1[C@@H]1[C@H](O)[C@@](O)(CO)[C@@H](O)[C@]4(O)C(=O)C(C)=C[C@H]4[C@@]1(O3)[C@H](C)[C@H]2OC(=O)c1ccccc1 the Activity (SW-620 [1]) was 84.75%, the viability at 1.48 µM (SW-620 [2]) was 45.4% and the Activity (SW-620 [3]) was “Active”. For the same compound, the Activity (SW-620 [4]) was 5.17%, the inhibition [5] was “Active” and the viability at 5.92 µM (SW-620 [6]) was 36.6%. The Activity (SW-620 [7]) was 76.93%, the Activity (SW-620 [8]) was 78.73% and the Activity (SW-620 [9]) was 0.43%. The Activity (SW-620 [10]) was 1.64%, the Activity (SW-620 [11]) was 8.83% and the Activity (SW-620 [12]) was “Active”. The Activity (SW-620 [13]) was 10.7%, the Activity (SW-620 [14]) was 14.19% and the IC50 (SW-620 [15]) was 3 µM.
